Results published in PMC3019225, “Striatal Pre- and Postsynaptic Profile of Adenosine A2A Receptor Antagonists” (PLoS ONE, 2011).

Key:
[1] = tested on: striatal glutamate release induced by cortical electrical stimulation; assay: In vivo microdialysis with cortical electrical stimulation; set-up: species or system rat; conditions: 1 mg/kg i.p.
Description: (§1) Male Sprague-Dawley rats (Charles River Laboratories, Wilmington, MA) weighting between 300–350 g were used in these experiments. Rats were housed 2 per cage and they maintained at a temperature of 22±2°C on a regular 12-h light–dark cycle. Food and water were available ad libitum.
Rats were anesthetized with 3 ml/kg of Equithesin (4.44 g of chloral hydrate, 0.972 g of Na pentobarbital, 2.124 g of MgSO4, 44.4 ml of propylene glycol, 12 ml of ethanol and distilled H2O up to 100 ml of final solution; NIDA Pharmacy, Baltimore, MD) and implanted unilaterally with bipolar stainless steel electrodes, 0.15 mm in diameter (Plastics One, Roanoke, VA), into the orofacial area of the lateral agranular motor cortex (3 mm anterior, 3 and 4 mm lateral, and 4.2 mm below bregma). The electrodes and a head holder (connected to a swivel during stimulation) were fixed on the skull with stainless steel screws and dental acrylic resin. […]
The experiments were performed on freely moving rats 24 h after probe implantation. […] Glutamate content was measured by reverse-phase HPLC coupled to a flourimetric detector (Shimadzu Inc., Tokio, Japan). Glutamate values were transformed as percentage of the mean of the three values before the drug or vehicle injection and transformed values were statistically analyzed.

rats [2] = assay: Motor output induced by cortical electrical stimulation (EMG recording, power correlation coefficient PCC); type: in vivo, rat; conditions: for Dose significantly reducing PCC: i.p., PCC 40 min after administration
Description: as §1
(§2) All drugs but MSX-3 (Sigma-Aldrich, St. Louis, MI) were provided by CHDI Foundation Inc. (Los Angeles, CA, US). SCH-420814 was administered subcutaneously (s.c.) at 1 ml/kg and the other drugs were administered via intraperitonal (i.p.) injection at volume of 2 ml/kg.
Rats were anesthetized with 3 ml/kg of Equithesin (4.44 g of chloral hydrate, 0.972 g of Na pentobarbital, 2.124 g of MgSO4, 44.4 ml of propylene glycol, 12 ml of ethanol and distilled H2O up to 100 ml of final solution; NIDA Pharmacy, Baltimore, MD) and implanted unilaterally with bipolar stainless steel electrodes, 0.15 mm in diameter (Plastics One, Roanoke, VA), into the orofacial area of the lateral agranular motor cortex (3 mm anterior, 3 and 4 mm lateral, and 4.2 mm below bregma). The electrodes and a head holder (connected to a swivel during stimulation) were fixed on the skull with stainless steel screws and dental acrylic resin. For the experiments with electromyographic (EMG) recording, electrodes were also implanted in mastication muscles (during the same surgical procedure). Two 5 mm-long incisions were made in the skin on the upper and lower jaw areas to expose the masseter and the lateral pterygoid muscles. […] The bare tips of the electrodes were then held in contact with the masseter and the lateral pterygoid muscles and the skin was closed with surgical staples. The other end of the recording electrodes was encased in a molded plastic pedestal with a round threaded post which was attached to an electrical swivel and then to a differential amplifier (Grass LP511, Grass Instruments, Warwick, RI). The pedestal was secured to the skull with dental cement together with the stimulation electrodes. For the in vivo microdialysis experiments, concentric microdialysis probes with 2-mm long dialysis membranes (Eicom Corp., Tokio, Japan) were implanted respectively into the striatum ipsilateral to the stimulation electrodes (0.0 mm AP, 4.5 ML and 7.0 mm DV).
Rats were placed in individual bowl chambers. Both stimulation electrodes and recording electrodes were attached using flexible shielded cabling to a four channel electrical swivel. Stimulation electrodes were connected to two-coupled constant current isolation units (PSIU6X, Grass Instruments West Warwick, RI) driven by an electrical stimulator (Grass S88X; Grass Instruments). The recording electrodes were connected to a differential amplifier (Grass LP511, West Warwick, RI). This configuration allows the rat to move freely while the stimulation and EMG recordings are taking place. After 60 min of habituation, biphasic current pulse trains (pulse of 0.1 ms at 120–200 µA; 100 Hz, 160 ms trains repeating once per 2 seconds) were delivered. The current intensity was adjusted to the threshold level, defined as the minimal level of current intensity allowing at least 95% of the stimulation pulses to elicit a positive EMG response. Positive EMG response was defined as at least 100% increase of the peak to peak amplitude respect to the background tonic EMG activity lasting more than 100 ms or at least 70% increase in the power of the EMG signal respect to the baseline. Positive EMG responses always matched observable small jaw movements. […]

rats [3] = assay: Locomotor activity in habituated rats; type: in vivo, rat; conditions: for Locomotor activation: 1 mg/kg i.p.; for Dose producing significant locomotor activation: i.p., 90 min after administration, habituated rats
Description: as §1, §2
Locomotor activity was measured by placing the animals individually in motility soundproof chambers (50×50 centimeters; Med Associates Inc., VT). Locomotion was measured by counting the number of breaks in the infrared beams of the chambers. The animals were placed in individual acrylic chambers at noon on the day of testing. A lamp inside each chamber remained lit during this period. Following 90 min of habituation, the rats were injected i.p. with different doses of each compound or vehicle and locomotor activity was recorded for 90 min after the drug or vehicle administration. All the animals were tested only once. The effect of different doses of the A2AR antagonists on locomotor activity were analyzed using a one-way analysis of variance (ANOVA), followed by Newman-Keuls' post-hoc test.

[4] = tested on: striatal glutamate release induced by cortical electrical stimulation; set-up: method as in PMID 19936569; conditions: intrastriatal perfusion; previous study; ref [5]; cited from earlier work
[5] = target: A1R in A1R-A2AR heteromers (Homo sapiens, UniProt P30542); conditions: A2AR-A1R cells, [^3H]DPCPX 2 nM
Sequence of A1R in A1R-A2AR heteromers (P29274 whole entry): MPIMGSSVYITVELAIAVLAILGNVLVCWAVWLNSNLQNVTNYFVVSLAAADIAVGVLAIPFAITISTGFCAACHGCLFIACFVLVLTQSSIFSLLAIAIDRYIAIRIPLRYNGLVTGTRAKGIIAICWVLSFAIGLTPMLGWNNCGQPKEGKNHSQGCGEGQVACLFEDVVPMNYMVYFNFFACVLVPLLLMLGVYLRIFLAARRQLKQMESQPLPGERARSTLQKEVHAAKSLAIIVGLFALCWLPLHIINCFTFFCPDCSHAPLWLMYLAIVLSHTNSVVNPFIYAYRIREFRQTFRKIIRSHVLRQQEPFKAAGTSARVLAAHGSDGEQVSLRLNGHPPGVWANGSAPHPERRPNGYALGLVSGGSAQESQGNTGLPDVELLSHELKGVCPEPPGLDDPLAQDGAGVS
Sequence of A1R in A1R-A2AR heteromers (P30542 whole entry): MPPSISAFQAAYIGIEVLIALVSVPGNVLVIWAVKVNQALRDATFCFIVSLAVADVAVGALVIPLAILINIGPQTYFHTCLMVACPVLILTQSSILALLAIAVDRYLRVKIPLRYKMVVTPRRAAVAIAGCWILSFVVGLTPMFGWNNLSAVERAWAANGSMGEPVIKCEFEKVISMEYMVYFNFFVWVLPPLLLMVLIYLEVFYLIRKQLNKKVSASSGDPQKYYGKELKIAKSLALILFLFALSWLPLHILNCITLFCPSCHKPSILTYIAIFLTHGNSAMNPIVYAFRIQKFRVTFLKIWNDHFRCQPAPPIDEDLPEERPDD

A2AR [6] = target: T1, A2AR (Homo sapiens, UniProt P29274); conditions: A2AR cells; [^3H]ZM-241385 2 nM
T1 sequence (P29274 whole entry): as the sequence (P29274 whole entry) above

A2AR [7] = target: T1, A2AR; assay: biochemical
[8] = target: T2, A2AR in A2AR-D2R heteromers (Homo sapiens, UniProt P29274); assay: biochemical
T2 sequence (P29274 whole entry): as above
T2 sequence (P14416 whole entry partner): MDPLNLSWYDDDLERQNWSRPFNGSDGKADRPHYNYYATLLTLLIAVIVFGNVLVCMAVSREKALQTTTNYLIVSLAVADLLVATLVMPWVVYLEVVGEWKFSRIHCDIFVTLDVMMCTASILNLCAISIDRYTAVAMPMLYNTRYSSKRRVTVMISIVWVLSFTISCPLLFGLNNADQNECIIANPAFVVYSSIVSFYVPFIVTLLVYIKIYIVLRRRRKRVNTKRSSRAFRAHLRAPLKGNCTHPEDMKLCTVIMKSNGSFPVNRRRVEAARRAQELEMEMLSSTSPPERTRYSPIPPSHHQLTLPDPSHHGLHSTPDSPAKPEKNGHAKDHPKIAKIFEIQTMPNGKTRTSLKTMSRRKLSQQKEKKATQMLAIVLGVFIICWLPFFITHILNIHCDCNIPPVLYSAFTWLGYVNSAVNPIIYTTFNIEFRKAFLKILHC

[9] = target: T3, A2AR in A1R-A2AR heteromers (Homo sapiens, UniProt P29274); assay: biochemical
T3 sequence (P29274 whole entry): as the sequence (P29274 whole entry) above
T3 sequence (P30542 whole entry partner): as the sequence (P30542 whole entry) above

[10] = target: T2, A2AR in A2AR-D2R heteromers; conditions: for Reduction of the affinity of A2AR by co-transfection with D2R: A2AR-D2R cells versus A2AR cells; for DCB (dimer cooperativity index): A2AR-D2R cells, A2AR, [^3H]ZM-241385 2 nM
[11] = target: T3, A2AR in A1R-A2AR heteromers; conditions: A2AR-A1R cells, [^3H]ZM-241385 2 nM

DCB (dimer cooperativity index) (A2AR [6])	Kd (A2AR [7]) [nM]	Kd [8] [nM]	Kd [9] [nM]	Reduction of the affinity of A2AR by co-transfection with D2R [10]	DCB (dimer cooperativity index) [10]	DCB (dimer cooperativity index) [11]	Structure (SMILES)	Effect on striatal glutamate release induced by cortical stimulation [1]	Reduction of PCC (rats [2]; 1 mg/kg i.p.)	Dose significantly reducing PCC (rats [2]) [mg/kg]	Locomotor activation (rats [3])	Dose producing significant locomotor activation (rats [3])	further results
0	0.5 ± 0.1	2.7 ± 0.8	1.1 ± 0.1	two to about nine	0	0	COCCOc1ccc(N2CCN(CCn3ncc4c3nc(N)n3nc(-c5ccco5)nc43)CC2)cc1 [SCH-420814, 2-(2-furanyl)-7-[2-[4-[4-(2-methoxyethoxy)phenyl]-1-piperazinyl]ethyl]-7H-pyrazolo[4,3-e][1], [2], [4]-triazolo[1,5-c]pyrimidin-5-amine]	–	–	–	–	–	–
0	3.2 ± 0.2	7 ± 2	4.2 ± 0.3	two to about nine	0	0	C#CCn1c(=O)c2c(nc(/C=C/c3cccc(OC)c3)n2C)n(CCCO)c1=O [MSX-2, (E)-3-(3-hydroxypropyl)-8-[2-(3-methoxyphenyl)vinyl]-7-methyl-1-prop-2-ynyl-3,7-dihydropurine-2,6-dione]	–	–	–	–	–	–

The remaining lines, values behind:

Structure (SMILES)	DCB (dimer cooperativity index) (A2AR [6])	Kd (A2AR [7]) [nM]	Kd [8] [nM]	Kd [9] [nM]	Reduction of the affinity of A2AR by co-transfection with D2R [10]	DCB (dimer cooperativity index) [10]	DCB (dimer cooperativity index) [11]	Effect on striatal glutamate release induced by cortical stimulation [1]	Reduction of PCC (rats [2]; 1 mg/kg i.p.)	Dose significantly reducing PCC (rats [2]) [mg/kg]	Locomotor activation (rats [3])	Dose producing significant locomotor activation (rats [3])	further results
CCn1c(=O)c2c(nc(/C=C/c3ccc(OC)c(OC)c3)n2C)n(CC)c1=O [KW-6002, (E)-1,3-diethyl-8-(3,4-dimethoxystyryl)-7-methyl-3,7-dihydro-1H-purine-2,6-dione]	–	–	–	–	–	–	–	did not modify	did not reduce PCC	> 10	pronounced locomotor activation	0.3 mg/kg	–
C#CCn1c(=O)c2c(nc(/C=C/c3cccc(OC)c3)n2C)n(CCCOP(=O)(O)O)c1=O.[Na].[Na] [MSX-3, (E)-phosphoric acid mono-(3-{8-[2-(3-methoxyphenyl)vinyl]-7-methyl-2,6-dioxo-1-prop-2-ynyl-1,2,6,7-tetrahydropurin-3-yl}propyl) ester disodium salt]	–	–	–	–	–	–	–	–	–	–	–	–	Reduction of PCC (rats [2]; dose-response, Fig. 2): very effective reduction of PCC; Effect on striatal glutamate release induced by cortical electrical stimulation [4]: almost completely counteracted
C[C@H](Cc1ccccc1)Nc1ncnc2c1ncn2[C@@H]1O[C@H](CO)[C@@H](O)[C@H]1O [R-PIA]	–	–	–	–	–	–	–	–	–	–	–	–	B50 (concentration providing half saturation) [5]: 30 ± 10 nM
COc1ccc(CCCn2ncc3c2nc(N)n2nc(-c4ccco4)nc32)cc1 [SCH-442416, 2-(2-Furanyl)-7-[3-(4-methoxyphenyl)propyl]-7H-pyrazolo[4,3-e][1], [2], [4]triazolo[1,5-c]pyrimidin-5-amine]	–	–	–	–	–	–	–	significantly counteracted	strongly reduced PCC	0.1	did not induce locomotor activation	higher than 3 mg/kg	–
